Experimental data reported in patent publication US10662198B2, “Polymorphic form of compound, preparation method and use thereof” (QILU PHARMACEUTICAL CO., LTD., priority 2017, dated 2020).

Tests used:
Assay type in all cases: physicochemical
[1] = Stability test at room temperature; settings: for Purity after 180 days / Crystalline form after 180 days: sealed medicinal low density polyethylene bags; for Purity after 180 days: HPLC; for Crystalline form after 180 days: XRPD
Source text: The crystalline form II prepared in example 2, crystalline form IV prepared in example 4, crystalline form VI prepared in example 8, and crystalline form VII prepared in example 10 were respectively placed in medicinal low density polyethylene bags, sealed, and maintained at room temperature for 180 days, detected by PANalytical X-ray powder diffractometer for its XRPD, and by high performance liquid chromatography for its purity.

[2] = Stability test under high humidity
Source text: The crystalline form IV prepared in example 4 was subjected to a stability test at 92.5% RH, and the results were shown in Table 8 below.

[3] = Stability test at high temperature
Experimental: The crystalline form II prepared in example 2 was subjected to a stability test at 60° C., and the results were shown in Table 7 below.

Row | purity and crystalline form after 180 days (in words) [1] | Purity after 180 days [1] | Crystalline form after 180 days [1] | HPLC purity (%) Initial ([2]; 92.5% RH test, initial) | HPLC purity (%) After 10 days ([2]; 92.5% RH, after 10 days) | change in purity and crystal form (in words) ([2]; high humidity condition, 10 days) | purity, color, and properties on preservation at high humidity (in words) ([2]; relative humidity of up to 92.5% RH) | HPLC purity (%) Initial ([3]; 60° C. test, initial) | Crystalline form After 10 days ([3]; 60° C., after 10 days) | HPLC purity (%) After 10 days ([3]; 60° C., after 10 days) | change in purity and crystalline form (in words) ([3]; high temperature condition, 10 days) | SMILES
1 | remained unchanged | 99.3% | unchanged | 99.2% | 99.1% | no change in purity and crystal form | purity, color, and properties unchanged | – | – | – | – | COC(=O)C1=C2C[C@H](NS(N)(=O)=O)CN2C(c2nccs2)=N[C@H]1c1ccc(F)c(F)c1F [Crystalline form IV, methyl (3R,6S)-6-aminosulfonylamino-1-(thiazol-2-yl)-3-(2,3,4-trifluorophenyl)-3,5,6,7-tetrahydropyrrolo[1,2-c]pyrimidin-4-formate]
2 | remained unchanged | 99.7% | unchanged | – | – | – | – | – | – | – | – | COC(=O)C1=C2C[C@H](NS(N)(=O)=O)CN2C(c2nccs2)=N[C@H]1c1ccc(F)c(F)c1F [Crystalline form VI, methyl (3R,6S)-6-aminosulfonylamino-1-(thiazol-2-yl)-3-(2,3,4-trifluorophenyl)-3,5,6,7-tetrahydropyrrolo[1,2-c]pyrimidin-4-formate]
3 | remained unchanged | 99.5% | unchanged | – | – | – | – | – | – | – | – | COC(=O)C1=C2C[C@H](NS(N)(=O)=O)CN2C(c2nccs2)=N[C@H]1c1ccc(F)c(F)c1F [Crystalline form VII, methyl (3R,6S)-6-aminosulfonylamino-1-(thiazol-2-yl)-3-(2,3,4-trifluorophenyl)-3,5,6,7-tetrahydropyrrolo[1,2-c]pyrimidin-4-formate]
4 | remained unchanged | 99.5% | unchanged | – | – | – | – | 96.8% | crystalline form unchanged | 96.6% | no change in purity and crystalline form | COC(=O)C1=C2C[C@H](NS(N)(=O)=O)CN2C(c2nccs2)=N[C@H]1c1ccc(F)c(F)c1F [Crystalline form II, methyl (3R,6S)-6-aminosulfonylamino-1-(thiazol-2-yl)-3-(2,3,4-trifluorophenyl)-3,5,6,7-tetrahydropyrrolo[1,2-c]pyrimidin-4-formate]
